Values quoted from earlier work as cited in patent US12637369B2, “Method for selectively removing perfluorinated compounds with electrooxidation” (SK hynix Inc., priority 2021, dated 2026).
Converted amounts (≈) assume the structure as drawn.

Experiments:
[1] = not given; remark: listed apart in the source

| SMILES | pKa | Solubility in water [1] |
| --- | --- | --- |
| O=C(O)C(F)(F)C(F)(F)C(F)(F)C(F)(F)C(F)(F)C(F)(F)C(F)(F)C(F)(F)F [PFNA, Perfluorononanoic acid] | 2-3 | 9500 µg/mL (≈ 20.5 mM) |
| O=S(=O)(O)C(F)(F)C(F)(F)C(F)(F)C(F)(F)F [PFBS, Perfluorobutane sulfonic acid] | −3.94 | Very high |
| O=S(=O)(O)C(F)(F)C(F)(F)C(F)(F)C(F)(F)C(F)(F)C(F)(F)C(F)(F)C(F)(F)F [PFOS, Perfluorooctane sulfonic acid] | −3.27 | 570 µg/mL (≈ 1.14 mM) |
| O=C(O)C(F)(F)C(F)(F)C(F)(F)C(F)(F)C(F)(F)C(F)(F)C(F)(F)F [PFOA, Perfluorooctanoic acid] |  | 3400 µg/mL (≈ 8.21 mM) |
